Experimental data reported in patent US9365598B2, “Phosphine derivatives of fluorescent compounds” (Pierce Biotechnology, Inc., priority 2011, dated 2016).

What was measured:
[1] = test system: mouse IgG immunoglobulin; experiment: Functional plate assay of compound-PEG4-GAM conjugates (RFU); type: binding; details: conjugates at 4 μg/ml on mouse IgG coated plates; FIGS. 13-14
Method: Performance of compound-GAM conjugates and compound-GAR conjugates was evaluated in a functional assay. Wells of a 96 white opaque plate were coated with target proteins mouse IgG immunoglobulin or rabbit IgG immunoglobulin. One hundred μl mouse or rabbit IgG at a concentration of 10 μg/ml was applied to the corresponding wells in columns 1 and 2. The target proteins were serially diluted 1:1 from the wells in columns 2 to 11 using 100 μl PBS. One hundred μl of samples from the wells in column 11 were discarded. One hundred μl PBS was added to the wells in column 12. The plates were incubated overnight at 4° C. and then blocked 2×200 μl with Thermo Scientific SuperBlock® Blocking Buffer. […] The plates were washed with 2×200 μl with PBS-Tween and 1×200 μl with PBS and filled with PBS buffer (100 μl/well) prior to scanning on Tecan Safire using 562 nmexcitation/576 nmemission to detect fluorescence intensity and DyLight 649 and DyLight 650 plated were measured using 654 nmexcitation/673 nmemission.
As shown in FIGS. 13-14, the fluorescence intensity, also termed the RFU, was compared for compound-PEG4-GAM conjugates where the compound was DyLight 549-phosphine (blue; FIG. 13), 550 Compound 1-phosphine (red; FIG. 13), DyLight 649-phosphine (red; FIG. 14) and 650 Compound 1-phosphine (blue; FIG. 14) at various concentrations. […]

[2] = test system: A549 cell lysate; experiment: A549 cell lysate labeling with azido-sugars, SDS-PAGE; type: cell-based, human
Method: The inventive and commercial compounds were examined in A549 cell lysate labeling experiments using azido-sugars. Cell extracts were prepared from A549 incubated with azido-sugar N-azidoacetylgalactosamine […], N-azidoacetylglucosamine (GlcNAz) or N-azidoacetylmannosamine […]. The cell extracts were incubated with either 550 Compound 1-phosphine, 650 Compound 1-phosphine, CLICK-iT® Alexa555-Alkyne, or CLICK-iT® Alexa Fluor 647 DIBO Alkyne and analyzed by SDS-PAGE. The resulting lysates were separated by electrophoresis. 10 μg protein was loaded onto a PAGE gel (4-12% Bis-Tris gel).
The resulting lysates were separated by electrophoresis. […]
FIGS. 63-64 graphically represent band intensity of FIGS. 61-62. […] Relative fluorescence intensity for the gel image of FIG. 61 comparing Alexa555 (copper) and 550 Compound 1-phosphine (FIG. 63) and for the gel image of FIG. 62 comparing Alexa647 (copper-less) and 650 Compound 1-phosphine (FIG. 64).

[3] = Thermal stress stability of the compounds, purity by HPLC before and after storage; type: physicochemical; details: unit size 1 mg; for Purity Before thermal stress: packed under argon, HPLC before storage; for Purity After thermal stress: under argon, stored at 50° C. for 14 days, HPLC
Method: The inventive compounds were evaluated for stability compared to commercial dyes. All compounds were packed under argon as 1 mg portions in plastic vials. The vials were sealed under argon with a drying pad in an aluminium coated pouch, and then stored at 50° C. for 14 days. The results of the stability study for selected compounds are shown below where the determination of purity was by HPLC before and after storage.

[4] = test system: A549 cells; experiment: Azido-sugar cell labeling, A549 cells; type: cell-based, human; details: N-azidoacetyl galactosamine, 100 μM dye-phosphine 3 h 37° C.
Excerpt: (§1) The inventive and commercial compounds were examined in cell labeling experiments using azido-sugars and adenocarcinomic human alveolar basal epithelial (A549) cells, human osteosarcoma (U2OS) cells, and immortalized proximal tubule epithelial (HK2) cells. As is known in the art, introduction of labeled sugar moieties results in incorporation of the labeled sugar moieties in various cellular molecules and locations.
Metabolically incorporated azido-labeled sugars, N-azidoacetyl galactosamine, N-azidoacetyl glucosamine, and N-azidoacetyl mannosamine was detected in vivo. Cells were incubated with 40 μM azido-sugar in cell culture media for 72 hours and the live cells were incubated with 100 μM of dye-labeled phosphine. The cells were then washed, fixed with 4% paraformaldehyde and counterstained with Hoechst 33342 which labels nuclei. For fixed cells, the cells were incubated with the azido-sugar, fixed with 4% paraformaldehyde, permeabilized with 0.1% Triton X-100, and incubated with 100 μM of dye-labeled phosphine. […]
Fluorescence intensity was measured in each spot identified using a specific Bio-Application with the ArrayScanVTI image analysis software. […]

[5] = test system: HK2 cells; experiment: Azido-sugar cell labeling, HK2 cells; type: cell-based; details: 100 μM dye-phosphine
Excerpt: as §1
(§2) Metabolically incorporated azido-labeled sugars, N-azidoacetyl galactosamine, N-azidoacetyl glucosamine, and N-azidoacetyl mannosamine was detected in vivo. Cells were incubated with 40 μM azido-sugar in cell culture media for 72 hours and the live cells were incubated with 100 μM of dye-labeled phosphine. The cells were then washed, fixed with 4% paraformaldehyde and counterstained with Hoechst 33342 which labels nuclei. For fixed cells, the cells were incubated with the azido-sugar, fixed with 4% paraformaldehyde, permeabilized with 0.1% Triton X-100, and incubated with 100 μM of dye-labeled phosphine. In live cell labeling using the phosphine labeling reaction used 100 μM of the dye-labeled phosphine for three hours at 37° C., and the CLICK-iT® labeling reaction, using DIBO-Alexa dye, used 30 μM of the DIBO Alexa dye for one hour at room temperature (RT). In fixed cell labeling, the phosphine labeling reaction used 100 μM of the dye-labeled phosphine for three hours at 37° C., and the CLICK-IT® labeling reaction, using DIBO-Alexa dye, used 50 μM of the DIBO Alexa dye for one hour at RT in the presence of 5 μM copper for one hour at RT in the absence of copper.
HK2 cells, either live (column A) or fixed (column B), were labeled with N-azidoacetyl galactosamine followed by labeling with 550 Compound 1-phosphine (row 1), 650 Compound 1-phosphine (row 2), or Copperless CLICK-iT® using DIBO-Alexa647 (row 3), as shown in FIG. 52. A graphical representation of the spot average intensity for the images of FIG. 52 is shown for labeling live (FIG. 53) and fixed (FIG. 54) cells. […]

[6] = test system: U2OS cells; experiment: Azido-sugar cell labeling, U2OS cells; type: cell-based, human; details: 100 μM dye-phosphine
Excerpt: as §1
as §2, with “In fixed cell labeling, the phosphine labeling reaction used 100 μM of the dye-labeled phosphine for three hours at 37° C., and the CLICK-IT® labeling reaction, using DIBO-Alexa dye, used 50 μM of the DIBO Alexa dye for one hour at RT in the presence of 5 μM copper for one hour at RT in the absence of copper.” left out

[7] = test system: secretory vesicles in HK2, A549, and U2OS cells; experiment: Secretory vesicle labeling with Az-ManNAc; type: cell-based; details: N-azidoacetyl mannosamine; co-localized with PGP9.5
Excerpt: The inventive and commercial compounds were used to label secretory vesicles in various cell types using azido-sugars. […] Co-localization of Man-650 Compound 1-phosphine, and this labeling was co-localized with PGP9.5, a secreted protein, as shown in FIGS. 65B and 66B (red arrows).

| Substance | fluorescence intensity (RFU) of compound-PEG4-GAM conjugates compared with DyLight 549 / DyLight 649 conjugate [1] | band intensity of labeled lysate versus CLICK-iT Alexa 555-alkyne ([2]; A549 lysates, three azido-sugars, 10 μg protein per lane, FIG. 63) | Purity Before thermal stress [3] | Purity After thermal stress [3] | live cell labeling (spot average intensity) versus Alexa647-DIBO CLICK-iT [4] | live cell labeling (spot average intensity) versus Alexa647-DIBO CLICK-iT ([5]; N-azidoacetyl galactosamine) | live cell labeling (spot average intensity) versus Alexa647-DIBO CLICK-iT ([5]; N-azidoacetyl glucosamine) | live cell labeling (spot average intensity) versus Alexa647-DIBO CLICK-iT ([5]; N-azidoacetyl mannosamine) | live cell labeling (spot average intensity) versus Alexa647-DIBO CLICK-iT ([6]; N-azidoacetyl glucosamine) | live cell labeling (spot average intensity) versus Alexa647-DIBO CLICK-iT ([6]; N-azidoacetyl mannosamine) | labeling pattern of lysate on gel ([2]; A549 lysates with Az-GalNAc, Az-GlcNAc or Az-ManNAc, FIG. 62) | secretory vesicle labeling [7] |
| --- | --- | --- | --- | --- | --- | --- | --- | --- | --- | --- | --- | --- |
| 2-((1E,3E)-3-(1-(6-(2-(3-(diphenylphosphino)-4-(methoxycarbonyl)benzamido)ethylamino)-6-oxohexyl)-3-methyl-5-sulfonato-3-(3-sulfonatopropyl)indolin-2-ylidene)prop-1-enyl)-1-(2-methoxyethyl)-3-methyl-3-(3-sulfonatopropyl)-3H-indolium-5-sulfonate [550 Compound 1-phosphine] | similar | better than CLICK-iT® Alexa 555-alkyne | 96% | 96% | – | – | – | – | – | – | – | – |
| 2-((1E,3E,5E)-5-(1-(6-(2-(3-(diphenylphosphino)-4-(methoxycarbonyl)benzamido)ethylamino)-6-oxohexyl)-3-methyl-5-sulfonato-3-(3-sulfonatopropyl)indolin-2-ylidene)penta-1,3-dienyl)-1-(2-methoxyethyl)-3-methyl-3-(3-sulfonatopropyl)-3H-indolium-5-sulfonate [650 Compound 1-phosphine] | similar | – | 97% | 96% | better than Alexa647-DIBO CLICK-iT® labeling | better than Alexa647-DIBO CLICK-iT® labeling | better than Alexa647-DI BO CLICK-iT® labeling | better than Alexa647-DIBO CLICK-iT® labeling | better than Alexa647-DIBO CLICK-iT® labeling | better than Alexa647-DIBO CLICK-iT® labeling | different labeling pattern for each of the three incorporated azido-sugars | resulted in labeling of secretory vesicles |
